The assay deals with T1, K-Ras G12S (Homo sapiens, UniProt P01116, G12S).
T1 construct: made in house; host or cells: E. coli (e.g., BL21 (DE3))
Briefly: HTRF assay of the K-Ras / SOS1 interaction. The assay is classed as biochemical. To be noted: IC50 (against K-Ras G12D) to IC50 (against K-Ras G12S). The text has this:
This assay can be also used to assess a selective inhibition or reduction of signaling output of a mutant Ras protein relative to a wildtype, or relative to a different mutant Ras protein. For example, the equilibrium interaction of wildtype Kras or K-Ras mutant (e.g., wildtype or a mutant thereof including those mentioned in Example 6) with SOS1 (e.g., hSOS1) can be assessed as a proxy or an indication for a subject compound's ability to bind and inhibit Ras protein. HTRF assay detects from (i) a fluorescence resonance energy transfer (FRET) donor (e.g., antiGST-Europium) that is bound to GST-tagged K-Ras mutant to (ii) a FRET acceptor (e.g., anti-6His-XL665) bound to a His-tagged hSOS 1.
The assay buffer can contain ~5 mM HEPES pH 7.4, -150 mM NaCI, - 1 mM DTT, 0.05% BSA and 0.0025% (v/v) Igepal. A Ras working solution is prepared in an assay buffer containing typically a suitable amount of the protein construct (e.g., GST-tagged K-Ras mutant) and the FRET donor (e.g., antiGST-Eu(K) from Cisbio, France). A SOS1 working solution is prepared in an assay buffer containing suitable amount of the protein construct (e.g., His-hSOS1) and the FRET acceptor (e.g., anti-6His-XL665 from Cisbio, France). A suitable amount of the protein construct will depend on the range of activity or range of IC50 values being detected or under investigation. For detecting IC50 within a range of 500 nM, the protein constructs of the same range of molarity can be utilized.
A fixed volume of DMSO with or without test compound is transferred into a 384-well plate. Ras working solution is added to all wells of the test plate. SOS1 working solution is added to all wells except for those that are subsequently filled the inhibitor control solution. Upon incubation for about 10 minutes or longer, the fluorescence is measured with a M1000Pro plate reader (Tecan) using HTRF detection (excitation 337nm, emission 1 : 620nm, emission 2: 665nm). Compounds are tested in duplicates at different concentrations (for example, 10 µM, 2.5 µM, 0.63 µM, 0.16 µM, 0.04 µM, 0.01 µM test compound). The ratiometric data (i.e., emission 2 divided by emission 1) is used to calculate IC50 values against Ras using GraphPad Prism (GraphPad software). Following this general procedure, samples were tested with or without a subject compound disclosed herein including compounds exemplified in Table 3 to assess their abilities to inhibit K-Ras G12S relative to another mutant (e.g., K-Ras G12D). Signaling output measured in terms of IC50 values can be obtained, a ratio of IC50 against one mutant relative to another mutant can be calculated. For instance, a selective reduction of K-Ras G12S signaling output can be evidenced by a ratio greater than one. In particular, a selective reduction of K-Ras G12S signaling relative to K-Ras G12D signaling is evidenced as the ratio of IC50 (against K-Ras G12D) to IC50 (against K-Ras G12S) is greater than 1. […]

T1 sequence (P01116 1-188 isoform P01116-2 G12S): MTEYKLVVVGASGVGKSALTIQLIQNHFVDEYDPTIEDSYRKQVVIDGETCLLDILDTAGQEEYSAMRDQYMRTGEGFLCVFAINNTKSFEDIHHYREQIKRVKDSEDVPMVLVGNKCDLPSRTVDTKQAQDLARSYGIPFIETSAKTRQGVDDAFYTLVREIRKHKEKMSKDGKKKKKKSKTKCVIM

As for `Nc1nc2c(-c3c(Cl)cc4c(NC5CCN(C(=O)Nc6ccncn6)CC5)nc(OC[C@@]56CCCN5C[C@H](F)C6)nc4c3F)ccc(F)c2s1` [Compound A147, 4-((7-(2-amino-7-fluorobenzo[d]thiazol-4-yl)-6-chloro-8-fluoro-2-(((2R,7aS)-2-fluorotetrahydro-1H-pyrrolizin-7a(5H)-yl)methoxy)quinazolin-4-yl)amino)-N-(pyrimidin-4-yl)piperidine-1-carboxamide], the “Ratio of IC50 KRAS G12D vs. IC50 KRAS G12S” value (from here on “Ratio”) is on record as “A (A: indicates that the ratio of IC50 against KrasG12D vs. IC50 against KrasG12S is 1-fold or greater)”.
As for `N#Cc1c(N)sc2c(F)ccc(-c3c(Cl)cc4c(OC5CCN(C(=O)Nc6nccs6)C5)nc(OC[C@@]56CCCN5C[C@H](F)C6)nc4c3F)c12` (stereo partly drawn) [Compound A150, 3-((7-(2-amino-3-cyano-7-fluorobenzo[b]thiophen-4-yl)-6-chloro-8-fluoro-2-(((2R,7aS)-2-fluorotetrahydro-1H-pyrrolizin-7a(5H)-yl)methoxy)quinazolin-4-yl)oxy)-N-(thiazol-2-yl)pyrrolidine-1-carboxamide], the “Ratio” value is reported as “A (A: indicates that the ratio of IC50 against KrasG12D vs. IC50 against KrasG12S is 1-fold or greater)”.
For the compound `N#Cc1nccn1C(=O)N1CCC(Nc2nc(OC[C@@]34CCCN3C[C@H](F)C4)nc3c(F)c(-c4ccc(F)c5sc(N)nc45)c(Cl)cc23)CC1` [Compound A155, 1-(4-((7-(2-amino-7-fluorobenzo[d]thiazol-4-yl)-6-chloro-8-fluoro-2-(((2R,7aS)-2-fluorotetrahydro-1H-pyrrolizin-7a(5H)-yl)methoxy)quinazolin-4-yl)amino)piperidine-1-carbonyl)-1H-imidazole-2-carbonitrile], the “Ratio” value is reported as “A (A: indicates that the ratio of IC50 against KrasG12D vs. IC50 against KrasG12S is 1-fold or greater)”.
Take `N#Cc1c(N)sc2c(F)ccc(-c3c(Cl)cc4c(N5CCN(C(=O)Nc6nccs6)CC(O)C5)nc(OC[C@@]56CCCN5C[C@H](F)C6)nc4c3F)c12` (stereo partly drawn) [Compound A164, 4-(7-(2-amino-3-cyano-7-fluorobenzo[b]thiophen-4-yl)-6-chloro-8-fluoro-2-(((2R,7aS)-2-fluorotetrahydro-1H-pyrrolizin-7a(5H)-yl)methoxy)quinazolin-4-yl)-6-hydroxy-N-(thiazol-2-yl)-1,4-diazepane-1-carboxamide]: the “Ratio” value is on record as “A (A: indicates that the ratio of IC50 against KrasG12D vs. IC50 against KrasG12S is 1-fold or greater)”.
Consider `Nc1nc2c(-c3c(Cl)cc4c(N5CC(N6CCN(C(=O)n7cncn7)CC6)C5)nc(OC[C@@]56CCCN5C[C@H](F)C6)nc4c3F)ccc(F)c2s1` [Compound A166, (4-(1-(7-(2-amino-7-fluorobenzo[d]thiazol-4-yl)-6-chloro-8-fluoro-2-(((2R,7aS)-2-fluorotetrahydro-1H-pyrrolizin-7a(5H)-yl)methoxy)quinazolin-4-yl)azetidin-3-yl)piperazin-1-yl)(1H-1,2,4-triazol-1-yl)methanone], for which the “Ratio” value was “A (A: indicates that the ratio of IC50 against KrasG12D vs. IC50 against KrasG12S is 1-fold or greater)”.
Regarding `C[C@H](Oc1nc(N2CCCCC3(CN(C(=O)n4cncn4)C3)C2)c2cc(Cl)c(-c3ccc(F)c4sc(N)c(C#N)c34)c(F)c2n1)[C@@H]1CCCN1C` [Compound A167, 4-(4-(2-(1H-1,2,4-triazole-1-carbonyl)-2,6-diazaspiro[3.6]decan-6-yl)-6-chloro-8-fluoro-2-((S)-1-((S)-1-methylpyrrolidin-2-yl)ethoxy)quinazolin-7-yl)-2-amino-7-fluorobenzo[b]thiophene-3-carbonitrile], the “Ratio” value is on record as “A (A: indicates that the ratio of IC50 against KrasG12D vs. IC50 against KrasG12S is 1-fold or greater)”.
For `N#Cc1cccn1C(=O)N1CC2CCC(C1)N2c1nc(OC[C@@]23CCCN2C[C@H](F)C3)nc2c(F)c(-c3ccc(F)c4sc(N)nc34)c(Cl)cc12` [Compound A172, 1-(8-(7-(2-amino-7-fluorobenzo[d]thiazol-4-yl)-6-chloro-8-fluoro-2-(((2R,7aS)-2-fluorotetrahydro-1H-pyrrolizin-7a(5H)-yl)methoxy)quinazolin-4-yl)-3,8-diazabicyclo[3.2. 1]octane-3-carbonyl)-1H-pyrrole-2-carbonitrile], the “Ratio” value was “A (A: indicates that the ratio of IC50 against KrasG12D vs. IC50 against KrasG12S is 1-fold or greater)”.
`N#Cc1ccn(C(=O)N2CCC(Nc3nc(OC[C@@]45CCCN4C[C@H](F)C5)nc4c(F)c(-c5ccc(F)c6sc(N)nc56)c(Cl)cc34)CC2)n1` [Compound A173, 1-(4-((7-(2-amino-7-fluorobenzo[d]thiazol-4-yl)-6-chloro-8-fluoro-2-(((2R,7aS)-2-fluorotetrahydro-1H-pyrrolizin-7a(5H)-yl)methoxy)quinazolin-4-yl)amino)piperidine-1-carbonyl)-1H-pyrazole-3-carbonitrile]: the “Ratio” value was “A (A: indicates that the ratio of IC50 against KrasG12D vs. IC50 against KrasG12S is 1-fold or greater)”.
For `Nc1nc2c(-c3c(Cl)cc4c(N5CCC6(CCN(C(=O)n7cncn7)C6)C5)nc(OC[C@@]56CCCN5C[C@H](F)C6)nc4c3F)ccc(F)c2s1` (stereo partly drawn) [Compound A175, (7-(7-(2-amino-7-fluorobenzo[d]thiazol-4-yl)-6-chloro-8-fluoro-2-(((2R,7aS)-2-fluorotetrahydro-1H-pyrrolizin-7a(5H)-yl)methoxy)quinazolin-4-yl)-2,7-diazaspiro[4.4]nonan-2-yl)(1H-1,2,4-triazol-1-yl)methanone], the “Ratio” value is reported as “A (A: indicates that the ratio of IC50 against KrasG12D vs. IC50 against KrasG12S is 1-fold or greater)”.
Consider `Nc1nc2c(-c3c(Cl)cc4c(N5CC6CCC5CN6C(=O)n5cncn5)nc(OC[C@@]56CCCN5C[C@H](F)C6)nc4c3F)ccc(F)c2s1` (stereo partly drawn) [Compound A192, (5-(7-(2-amino-7-fluorobenzo[d]thiazol-4-yl)-6-chloro-8-fluoro-2-(((2R,7aS)-2-fluorotetrahydro-1H-pyrrolizin-7a(5H)-yl)methoxy)quinazolin-4-yl)-2,5-diazabicyclo[2.2.2]octan-2-yl)(1H-1,2,4-triazol-1-yl)methanone], for which the “Ratio” value is reported as “A (A: indicates that the ratio of IC50 against KrasG12D vs. IC50 against KrasG12S is 1-fold or greater)”.
As for `Nc1nc2c(-c3c(Cl)cc4c(N5C[C@H]6CC[C@@H](C5)N6C(=O)n5ccc(F)n5)nc(OC[C@@]56CCCN5C[C@H](F)C6)nc4c3F)ccc(F)c2s1` [Compound A214, ((1R,5S)-3-(7-(2-amino-7-fluorobenzo[d]thiazol-4-yl)-6-chloro-8-fluoro-2-(((2R,7aS)-2-fluorotetrahydro-1H-pyrrolizin-7a(5H)-yl)methoxy)quinazolin-4-yl)-3,8-diazabicyclo[3.2.1]octan-8-yl)(3-fluoro-1H-pyrazol-1-yl)methanone], the “Ratio” value was “A (A: indicates that the ratio of IC50 against KrasG12D vs. IC50 against KrasG12S is 1-fold or greater)”.
On to `N#Cc1c(N)sc2c(F)ccc(-c3c(Cl)cc4c(N5CCOC6(CN(C(=O)n7cncn7)C6)C5)nc(OC[C@@]56CCCN5C[C@H](F)C6)nc4c3F)c12` [Compound A232, 4-(4-(2-(1H-1,2,4-triazole-1-carbonyl)-5-oxa-2,8-diazaspiro[3.5]nonan-8-yl)-6-chloro-8-fluoro-2-(((2R,7aS)-2-fluorotetrahydro-1H-pyrrolizin-7a(5H)-yl)methoxy)quinazolin-7-yl)-2-amino-7-fluorobenzo[b]thiophene-3-carbonitrile], for which the “Ratio” value was “A (A: indicates that the ratio of IC50 against KrasG12D vs. IC50 against KrasG12S is 1-fold or greater)”.

Values taken from patent EP4389751A1, “HETEROCYCLIC COMPOUNDS AND USES THEREOF” (Kumquat Biosciences Inc., priority 2021, dated 2024).
